In PubChem BioAssay AID330 (DTP/NCI, 2004):
Values joined by “and” are separate entries in the source; they are usually repeats but may differ in a detail not shown here. Equal entries are not always repeated. Inconclusive results and toxic doses are left out. How the source made its calls: active means survival T/C of 150% or more; inactive means T/C below 125% in these data.

Tested on: P388 leukemia ip, CD2F1 mice, survival T/C
Experiment: NCI In Vivo Anticancer Drug Screen. Data for tumor model P388 Leukemia (intraperitoneal) in CD2F1 (CDF1) mice
Details: endpoint: median survival time, higher = longer survival
Procedure, shortened: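 Mice carrying the transplanted tumor received test compound or vehicle. Survival was recorded in each group, and the value is the treated-group measurement divided by that of the vehicle-treated control group.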

[1] = dose: 60.0 mg/kg/injection, schedule: Q01DX005 (ip), vehicle: saline with Tween-80
[2] = dose: 120.0 mg/kg/injection, schedule: Q01DX005 (ip), vehicle: saline with Tween-80
[3] = dose: 240.0 mg/kg/injection, schedule: Q01DX005 (ip), vehicle: saline with Tween-80
[4] = dose: 100.0 mg/kg/injection, schedule: Q04DX002 (ip), vehicle: saline
[5] = dose: 200.0 mg/kg/injection, schedule: Q04DX002 (ip), vehicle: saline
[6] = dose: 400.0 mg/kg/injection, schedule: Q04DX002 (ip), vehicle: saline
[7] = dose: 60.0 mg/kg/injection, schedule: Q01DX005 (ip), vehicle: Klucel (hydroxypropylcellulose) (HPC)
[8] = dose: 120.0 mg/kg/injection, schedule: Q01DX005 (ip), vehicle: Klucel (hydroxypropylcellulose) (HPC)
[9] = dose: 240.0 mg/kg/injection, schedule: Q01DX005 (ip), vehicle: Klucel (hydroxypropylcellulose) (HPC)
[10] = dose: 100.0 mg/kg/injection, schedule: Q04DX003 (ip), vehicle: Klucel (hydroxypropylcellulose) (HPC)
[11] = dose: 200.0 mg/kg/injection, schedule: Q04DX003 (ip), vehicle: Klucel (hydroxypropylcellulose) (HPC)
[12] = dose: 100.0 mg/kg/injection, schedule: Q01DX001 (ip), vehicle: Klucel (hydroxypropylcellulose) (HPC)
[13] = dose: 200.0 mg/kg/injection, schedule: Q01DX001 (ip), vehicle: Klucel (hydroxypropylcellulose) (HPC)
[14] = dose: 400.0 mg/kg/injection, schedule: Q01DX001 (ip), vehicle: Klucel (hydroxypropylcellulose) (HPC)
[15] = dose: 100.0 mg/kg/injection, schedule: Q01DX001 (ip), vehicle: saline
[16] = dose: 200.0 mg/kg/injection, schedule: Q01DX001 (ip), vehicle: saline
[17] = dose: 400.0 mg/kg/injection, schedule: Q01DX001 (ip), vehicle: saline

Measured: T/C

CCCCCCCCCCCCCCCC(=O)N(CCCCCCCCCN(CCCN(C)C)C(=O)CCCCCCCCCCCCCCC)CCCN(C)C
inactive: dose: 3.13 mg/kg/injection, schedule: Q01DX009 (ip), vehicle: water 108 % of control | dose: 6.25 mg/kg/injection, schedule: Q01DX009 (ip), vehicle: water 109 % of control | dose: 12.5 mg/kg/injection, schedule: Q01DX009 (ip), vehicle: water 105 % of control | dose: 25.0 mg/kg/injection, schedule: Q01DX009 (ip), vehicle: water 93 % of control and 96 % of control | dose: 50.0 mg/kg/injection, schedule: Q01DX009 (ip), vehicle: water 103 % of control

CC(=O)OC1C(=O)C=C(C)OC1=O (centres undefined)
inactive: [1] 102 % of control | [2] 99 % of control | [3] 106 % of control

CC1(C)CN(c2ccccc2)N(C(=O)C(=O)N2C(=O)C(C)(C)CN2c2ccccc2)C1=O
inactive: [4] 104 % of control | [5] 102 % of control | [6] 100 % of control

S=c1nc[nH][nH]1
inactive: dose: 50.0 mg/kg/injection, schedule: Q01DX009 (ip), vehicle: suspension in saline 99 % of control | dose: 100.0 mg/kg/injection, schedule: Q01DX009 (ip), vehicle: suspension in saline 105 % of control | dose: 200.0 mg/kg/injection, schedule: Q01DX009 (ip), vehicle: suspension in saline 106 % of control

CC1(C)NC(=S)N(c2ccccc2C(=O)O)C2=C1CN(Cc1ccccc1)CC2
inactive: dose: 50.0 mg/kg/injection, schedule: Q01DX009 (ip), vehicle: saline 100 % of control | dose: 100.0 mg/kg/injection, schedule: Q01DX009 (ip), vehicle: saline 95 % of control | dose: 200.0 mg/kg/injection, schedule: Q01DX009 (ip), vehicle: saline 105 % of control

CN(C)CC(CN(C)C)C(=O)c1ccc(OC2OC(CO)C(O)C(O)C2O)cc1 (centres undefined)
inactive: dose: 60.0 mg/kg/injection, schedule: Q01DX005 (ip), vehicle: saline 103 % of control | dose: 120.0 mg/kg/injection, schedule: Q01DX005 (ip), vehicle: saline 99 % of control | dose: 240.0 mg/kg/injection, schedule: Q01DX005 (ip), vehicle: saline 105 % of control

NNC(=O)C1CC2c3ccccc3C1c1ccccc12 (centres undefined)
inactive: [1] 101 % of control | [2] 99 % of control | [3] 97 % of control

C[n+]1ccc(NN)cc1
inactive: dose: 50.0 mg/kg/injection, schedule: Q01DX005 (ip), vehicle: Klucel (hydroxypropylcellulose) (HPC) 100 % of control | dose: 100.0 mg/kg/injection, schedule: Q01DX005 (ip), vehicle: Klucel (hydroxypropylcellulose) (HPC) 103 % of control | dose: 200.0 mg/kg/injection, schedule: Q01DX005 (ip), vehicle: Klucel (hydroxypropylcellulose) (HPC) 101 % of control

CCOc1cnco1
inactive: [4] 99 % of control | [5] 100 % of control | [6] 112 % of control

COC1=C(C#N)C(c2ccccc2)CC(N)=N1 (centres undefined)
inactive: [7] 112 % of control | [8] 94 % of control

OC(Cc1nc2ccccc2s1)c1ccco1 (centres undefined)
inactive: [7] 101 % of control | [8] 103 % of control | [9] 103 % of control

COC(=O)CC1(C(=O)OC)c2ccc3c(C(=O)C(F)(F)F)cccc3c2N2CCCC21 (centres undefined)
inactive: [4] 101 % of control | [5] 102 % of control | [6] 102 % of control

O=[N+]([O-])c1ccc(CN2CCN(c3nccs3)CC2)cc1
inactive: dose: 50.0 mg/kg/injection, schedule: Q01DX009 (ip), vehicle: Klucel (hydroxypropylcellulose) (HPC) 101 % of control | dose: 100.0 mg/kg/injection, schedule: Q01DX009 (ip), vehicle: Klucel (hydroxypropylcellulose) (HPC) 105 % of control | dose: 200.0 mg/kg/injection, schedule: Q01DX009 (ip), vehicle: Klucel (hydroxypropylcellulose) (HPC) 105 % of control

COc1cc(CC2C(CO)OC(=O)C2C(O)c2ccc3c(c2)OCO3)cc(OC)c1OC (centres undefined)
inactive: dose: 5.0 mg/kg/injection, schedule: Q04DX002 (ip), vehicle: saline with Tween-80 104 % of control | dose: 10.0 mg/kg/injection, schedule: Q04DX002 (ip), vehicle: saline with Tween-80 104 % of control | dose: 20.0 mg/kg/injection, schedule: Q04DX002 (ip), vehicle: saline with Tween-80 102 % of control

N#C/C(=C/c1cccs1)c1ccc(Cl)cc1
inactive: [10] 109 % of control | [11] 99 % of control

O=C1c2ccccc2NC(O)c2cccn21 (centres undefined)
inactive: dose: 0.1 mg/kg/injection, schedule: Q01DX005 (ip), vehicle: water 89 % of control | dose: 0.2 mg/kg/injection, schedule: Q01DX005 (ip), vehicle: water 91 % of control | dose: 0.4 mg/kg/injection, schedule: Q01DX005 (ip), vehicle: water 93 % of control | dose: 0.8 mg/kg/injection, schedule: Q01DX005 (ip), vehicle: water 91 % of control | dose: 1.6 mg/kg/injection, schedule: Q01DX005 (ip), vehicle: water 93 % of control | dose: 5.0 mg/kg/injection, schedule: Q01DX005 (ip), vehicle: distilled water + Tween-80 99 % of control | dose: 10.0 mg/kg/injection, schedule: Q01DX005 (ip), vehicle: distilled water + Tween-80 99 % of control | dose: 20.0 mg/kg/injection, schedule: Q01DX005 (ip), vehicle: distilled water + Tween-80 99 % of control | dose: 40.0 mg/kg/injection, schedule: Q01DX005 (ip), vehicle: distilled water + Tween-80 100 % of control | dose: 80.0 mg/kg/injection, schedule: Q01DX005 (ip), vehicle: distilled water + Tween-80 95 % of control

COc1cc(OC)cc(C2(C(=O)[C@@H]3OC(C)(C)OC3C)SCCCS2)c1 (some centres undefined)
inactive: [12] 98 % of control | [13] 94 % of control | [14] 90 % of control

CCC(C)OC(=Nc1cccc2ccccc12)Nc1cccc2ccccc12 (centres undefined)
inactive: [1] 92 % of control | [2] 93 % of control | [3] 93 % of control

O=c1[nH]c2c([N+](=O)[O-])cc(Cl)cc2nc1/C=C(\O)c1ccc(F)cc1
inactive: [1] 101 % of control | [2] 102 % of control | [3] 106 % of control

CCOP(O)(=S)OCC
inactive: dose: 12.5 mg/kg/injection, schedule: Q01DX001 (ip), vehicle: saline 94 % of control | dose: 25.0 mg/kg/injection, schedule: Q01DX001 (ip), vehicle: saline 100 % of control | [12] 89 % of control | [15] 103 % of control | [10] 92 % of control | dose: 100.0 mg/kg/injection, schedule: Q04DX003 (ip), vehicle: saline 88 % of control | [13] 108 % of control | [16] 98 % of control and 106 % of control | [11] 89 % of control | dose: 200.0 mg/kg/injection, schedule: Q04DX003 (ip), vehicle: saline 90 % of control | [14] 92 % of control | [17] 108 % of control and 106 % of control | dose: 400.0 mg/kg/injection, schedule: Q04DX003 (ip), vehicle: Klucel (hydroxypropylcellulose) (HPC) 90 % of control | dose: 400.0 mg/kg/injection, schedule: Q04DX003 (ip), vehicle: saline 101 % of control

CC(=O)c1ccc2oc(C(C)=O)cc2c1
inactive: dose: 2.5 mg/kg/injection, schedule: Q01DX009 (ip), vehicle: saline with Tween-80 97 % of control | dose: 5.0 mg/kg/injection, schedule: Q01DX009 (ip), vehicle: saline with Tween-80 96 % of control

CSc1nc2c(nnn2C2OCC(O)C(O)C2O)c(=O)[nH]1 (centres undefined)
inactive: [1] 93 % of control | [2] 93 % of control | [3] 86 % of control

Nc1nc(N)c2c(n1)NCN(OCCOc1ccc(Cl)cc1Cl)C2
inactive: [1] 105 % of control | [2] 90 % of control

O=C(NN1C(=O)C2=Cc3ccccc3OC2=NC1c1ccccc1O)c1ccncc1 (centres undefined)
inactive: [15] 96 % of control | [16] 98 % of control | [17] 94 % of control

CCCCCCCCCCCC(=O)CCCC
inactive: dose: 100.0 mg/kg/injection, schedule: Q04DX003 (ip), vehicle: other 104 % of control | dose: 200.0 mg/kg/injection, schedule: Q04DX003 (ip), vehicle: other 113 % of control | dose: 400.0 mg/kg/injection, schedule: Q04DX003 (ip), vehicle: other 118 % of control

O=C1C2=C(Nc3cc(Cl)ccc3N2)OC1c1ccc(C2OC3=C(Nc4ccc(Cl)cc4N3)C2=O)cc1 (centres undefined)
inactive: [7] 104 % of control | [8] 111 % of control | [9] 105 % of control
